This note sets out measurements from publication PMC12128024, “Copper(II) Cyclopeptides with High ROS-Mediated Cytotoxicity” (Bioconjugate Chemistry, 2025).

Test [1] deals with NCI/ADR-RES cells. Nature of the test: ICP-MS internalization study (intracellular Cu accumulation). The note with it: 1 µM compound, 48 h, metallopeptides 1 eq. cyclopeptide + 1 eq. Cu(II). In kind it is cell-based. Here is the method: To evaluate the ability of the Cu(II) metallopeptide systems to internalize in cancer cells, ICP-MS studies were performed in NCI/ADR-RES cells after 48 h of incubation with cyclopeptides 1 and 2, as well as their corresponding 1/Cu(II) and 2/Cu(II) metallopeptide derivatives formed by mixing each cyclopeptide with 1 equiv Cu(II), and using CuCl2·2H2O both as a Cu(II) source and a control.
7.1. General methods and materials
ICP Measurements were conducted employing an Agilent 7900 ICP-MS system (Agilent Technologies, Tokyo, Japan). The sample introduction system was comprised of an autosampler, a double-pass spray chamber with Peltier system, a glass concentric nebulizer (MicroMist low-flow nebulizer, Glass Expansion, West Melbourne, Australia), and a quartz torch.
Quantification of copper concentrations was achieved using Agilent ICP-MS MassHunter 5.1, (Version D.01.01 Agilent Technologies, Tokyo, Japan). The parameters for the ICP-MS device were as follows: RF Power, 1550 W; Sample Depth, 8; Carrier Gas, 1.1 L/min; Nebulizer Pump […]
Roswell Park Memorial Institute 1640 medium (RPMI), fetal bovine serum (FBS), penicillin, and streptomycin were purchased from Invitrogen Thermo Fisher.
Ovarian tumour NCI/ADR-RES cells, obtained from the European Collection of Authenticated Cell Cultures (ECACC), were cultured at 37 °C in a 5% CO2 atmosphere in RPMI medium containing 10% FBS and supplemented with 50 U/mL penicillin and 50 U/mL streptomycin, in 75 cm2 cell culture flasks. All cell experiments were performed at 37 °C in a 5% CO 2 atmosphere with this modified RPMI, referred as “medium” or “culture medium”.
7.3. […]
The culture medium was then replaced with 3 mL of fresh medium containing 1 µM of the compound [Cu(II) (CuCl₂·2H₂O), cyclopeptide ( 1 or 2), or metallopeptide system [1/Cu(II) or 2/Cu(II); 1 eq. cyclopeptide + 1 eq. […] Lysates were digested at 95 °C overnight, diluted with 1% HNO₃ to a final volume of 5 mL, and analyzed by ICP-MS. The Cu(II) content in the culture medium (3 mL) was also measured using the same technique, yielding a value of 41.46 ng. […]

The subject of test [2] is NCI/ADR-RES cells. Nature of the test: Intracellular ROS generation (ROS Assay Stain 1X). The format is cell-based. The note with it: 100 μM compound with 125 μM H2O2, 1-5 h and 24 h, 1/Cu(II) equimolar. Here is the method: Measurement of intracellular ROS levels in NCI/ADR-RES cells treated with Cu(II) ions, cyclopeptide 1, or the 1/Cu(II) metallopeptide system confirmed a time-dependent increase in the level of ROS generation. In short, after 24 h of incubation, cells were stained with ROS Assay Stain 1× and treated with 100 μM Cu(II) (CuCl2·2H2O), cyclopeptide 1, or 1/Cu(II), along with 125 μM H2O2, and fluorescence was recorded (λex = 495/λem = 520 nm) every hour for the first 5 h and again at 24 h. The experiment with the metallopeptide system was conducted by using equimolar amounts of cyclopeptide 1 and Cu(II) to prevent an excess of free copper in the medium. […] The cytotoxicity of the metallopeptide systems appears to be closely linked to their ability to enhance intracellular oxidative stress via increased ROS production, likely driven by Cu(II) accumulation within the cells.
9.2. […]
NCI/ADR-RES cells were seeded in a 96 well plate (Thermo Scientific 165305) at a density of 2,5 x 10^5 cells/ml. […] The fluorescence was measured in a microplate reader every hour for the first 5 hours, and again at 24 hours after the addition of the compounds (λex= 495 nm / λem= 520 nm). […]
Figure S15. […] Fluorescence (λex= 495 nm / λem= 520 nm) was recorded every hour for the first 5 hours, and again at 24 hours after the addition of the compounds to assess intracellular ROS generation. […]

Test [3] deals with HCT-116 (colon carcinoma). To be noted: 48 h.
Text: (§1) IC50 is the concentration at which 50% growth inhibition is obtained and E max represents the efficacy of the compound at its maximum concentration, expressed as the maximum % cell inhibition achieved by the compound (see Section S6 and Figure S8 of the Supporting Information).
(§2) General method: cell lines and grown conditions
(§3) Non-small lung carcinoma NCI-H460, human colon carcinoma HCT-116, human glioma SF-268
(§4) and doxorubicin-resistance human mamma carcinoma NCI/ADR-RES cell lines, as well as
(§5) Eagle’s Minimal Essential Medium (EMEM) and RPMI1640 were purchased from the American Tissue Culture Collection (ATCC). Frozen cells were thawed in a 75 cm2 cell culture flask in RPMI
(§6) supplemented with 2 mM L-glutamine and 10% FBS and maintained at 37 °C in a 5% CO2
(§7) The inhibition of cell proliferation induced by the samples [1/Cu(II), 1 eq. cyclopeptide 1/3 eq. of
(§8) Cu(II); 2/Cu(II), 1 eq. cyclopeptide 2/5 eq. of Cu(II)]‚ was carried out by using MTT method for
(§9) HCT-116, NCI/ADR-RES and NCI-H460 cell lines. SF-268 cell growth inhibition induced by the
(§10) samples was assessed using a system based on crystal violet cell staining and subsequent
(§11) acetylation. Cells were seeded in a 96-well microplate (5000 cells/well for HCT-116, 10000
(§12) cells/well for SF-268 and 15000 cells/well for NCI/ADR-RES and NCI-H460 cell lines) in 100 μl
(§13) of growth medium and maintained at 37 °C for 24 h.
(§14) Then growth medium was replaced by fresh medium containing different concentrations of the
(§15) samples to be assayed and maintained at 37 °C in a 5% CO2 atmosphere for 48 h. After this
(§16) time, 10 μL MTT (5 mg/ml in PBS) were added to each well and maintained for 4 h at 37 °C in a
(§17) 5% CO2 atmosphere. Then 100 μL of 10% SDS in 0.01 M HCl were added to each well an
(§18) incubated for 12-14 h under the same experimental conditions. Absorbance due to formation
(§19) was detected in a Tecan infinity M1000 Pro reader using a wavelength of 595 nm. All assays
were performed with triplicate points.
b) Crystal violet cell staining
(§20) The samples dissolved in water were added, maintaining the same proportion of water in each
(§21) well (10%). After 72 h (at 37°C and in an atmosphere of 5% CO 2/95% air), the cells were fixed to
(§22) the plate with 10 μL of 11% glutaraldehyde solution, kept under agitation at room temperature,
(§23) for 15 minutes. Once fixed, the medium was removed and the cells were washed 3-4 times with
(§24) distilled water, followed by staining of the cells with 100 μL of a 0.1% crystal violet solution. This
(§25) solution was prepared by diluting 0.1g of crystal violet in 100 mL of buffer composed of 200 mM
(§26) phosphoric acid, 200 mM formic acid and 200 mM 2-(N-morpholino)-ethane sulphonic acid
(§27) (MES) at pH 6. The plate was kept shaking at room temperature for 15 minutes. The dye was
(§28) removed, washed 3-4 times with distilled water and dried. 100 μL of 10% acetic acid was then
(§29) added and kept under agitation for 15 minutes, at room temperature, so that the staining was
(§30) homogeneous in all wells. Finally, an absorbance reading of the plates was performed at a
(§31) wavelength of 595 nm (Tecan M1000 Infinite Pro). The assay was performed with triplicate points.
(§32) Data were expressed as the growth inhibition percentage calculated in basis on the equation: %
(§33) inhibition= 100 – [(AO × 100) / AT]. Where AT is the measured absorbance in wells containing
(§34) compounds and AO is the absorbance measured in blank wells (cells with medium and vehicle).
(§35) The inhibitory potency of compounds was calculated by constructing concentration-% growth
(§36) inhibition curves, and extrapolating IC50 values (concentration of compound that inhibits cells
Test [4] deals with nontransformed lung fibroblast (MRC-5). To be noted: 48 h.
Text: as §1, §2, §3, §4, §5, §6, §7, §8, §9, §10, §11, §12, §13, §14, §15, §16, §17, §18, §19
were performed with triplicate points.
b) Crystal violet cell staining
as §20, §21, §22, §23, §24, §25, §26, §27, §28, §29, §30, §31, §32, §33, §34, §35, §36

SMILES strings stand for the structures. *1 amine or outer side, *2 acyl side, *3 side chain or, on linkers, in order; H or OH if unused. Where a SMILES comes first, the peptide text is derived from it. [ ]: non-standard residue; d: D form. X1 = O=C(c1ccc(-c2ccc(N[*:1])cn2)nc1)[*:2]; βAla = NCCC(=O)O

As for `N=C(N)NCCC[C@@H]1NC(=O)c2ccc(nc2)-c2ccc(cn2)NC(=O)CCNC(=O)[C@H](CCCNC(=N)N)NC(=O)[C@H](CCCNC(=N)N)NC(=O)[C@H](CCCNC(=N)N)NC(=O)c2ccc(nc2)-c2ccc(cn2)NC(=O)CCNC(=O)[C@H](CCCNC(=N)N)NC(=O)[C@H](CCCNC(=N)N)NC1=O` [compound 1, cyclo-(βAlaBpy-Arg3)2] (cyclo([X1]RRR[βAla][X1]RRR[βAla])), the “intracellular Cu(II) accumulation (ICP-MS)” value in the test with NCI/ADR-RES cells [1] is listed as “notably lower than that of the metallopeptide systems”. Besides, in the test on NCI/ADR-RES cells [2], the “intracellular ROS levels (fluorescence)” value is reported as “also promotes ROS generation, albeit to a lesser extent”. Besides, in test [3], the “E max (maximum % cell inhibition)” value turned out to be 27 ± 1% and the IC50 is > 100 µM. Also, in test [4], the “E max (maximum % cell inhibition)” value was determined as 24 ± 2% and the IC50 was > 100 µM.

One may read the IC50 as the concentration that gives 50% inhibition. Low values mean higher potency, high ones lower potency.
